From PMC12144822 (Parasites & Vectors, 2025)

Legend:
Assay type in all cases: cell-based
Hsa-GABAR = test: Voltage-clamp concentration-activation, summary over the six human receptors; settings: concentration-activation curves
Experimental: (§1) Defoliculated X. laevis oocytes ordered from Ecocyte Bioscience (Dortmund, Germany) were microinjected with 15–25 nl of cRNA solution (5–50 ng/μl) per oocyte using an automated injector (Roboinject; Multi Channel Systems MCS GmbH, Reutlingen, Germany) and then incubated at 18 °C. All recordings were made 1–5 days post-cRNA injection and were performed at 18 ± 4 °C. Cells were superfused with OR2 medium (NaCl 88 mM, KCl 2.5 mM, HEPES 5 mM, CaCl2•2H2O 1.8 mM, MgCl2•7H2O 1.0 mM, pH 7.4). To ensure that γ2 subunits were integrated into the heteropentamers, we injected fivefold more γ2 than the other subunit cRNAs. Diazepam is a positive allosteric modulator of GABAR only if γ2 subunits are present. Therefore, we used this method to confirm the presence of human and dog GABAA receptor containing the γ2 subunit.
Voltage-clamp measurements were performed as described by Rufener et al.. Oocytes were impaled with two electrodes filled with 3 M KCl, and their membrane potentials were maintained at − 80 mV throughout the experiment. […] Recordings were performed using an automated process equipped with standard two-electrode voltage-clamp configuration (HiClamp system; Multi Channel Systems MCS GmbH). Data were filtered at 10 Hz, captured at 100 Hz and analyzed using proprietary data acquisition and analysis software in MATLAB (Mathworks Inc., Natick, MA, USA). […]

Clu-GABA α2β2γ2 = Clu-GABA α2β2γ2 (Canis lupus familiaris, UniProt A0A8I3RPG5+A0A8I3S1N5+E2RSQ0); test: Two-electrode voltage-clamp concentration-activation by the natural agonist, receptor expressed in Xenopus oocytes
Sequence of Clu-GABA α2β2γ2 (A0A8I3S1N5 29-451): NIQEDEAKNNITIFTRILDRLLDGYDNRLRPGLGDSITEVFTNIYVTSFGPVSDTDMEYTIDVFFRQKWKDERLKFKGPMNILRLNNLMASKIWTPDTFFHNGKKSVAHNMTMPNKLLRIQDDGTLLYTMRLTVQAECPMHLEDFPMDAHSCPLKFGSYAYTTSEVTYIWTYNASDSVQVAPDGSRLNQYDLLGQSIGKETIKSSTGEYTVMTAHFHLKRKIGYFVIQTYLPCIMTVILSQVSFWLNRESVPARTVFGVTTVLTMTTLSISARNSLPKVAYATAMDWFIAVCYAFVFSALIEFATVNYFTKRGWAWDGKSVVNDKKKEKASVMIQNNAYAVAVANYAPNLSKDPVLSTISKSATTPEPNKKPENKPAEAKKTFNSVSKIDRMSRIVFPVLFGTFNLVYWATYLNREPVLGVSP
Sequence of Clu-GABA α2β2γ2 (A0A8I3RPG5 25-473): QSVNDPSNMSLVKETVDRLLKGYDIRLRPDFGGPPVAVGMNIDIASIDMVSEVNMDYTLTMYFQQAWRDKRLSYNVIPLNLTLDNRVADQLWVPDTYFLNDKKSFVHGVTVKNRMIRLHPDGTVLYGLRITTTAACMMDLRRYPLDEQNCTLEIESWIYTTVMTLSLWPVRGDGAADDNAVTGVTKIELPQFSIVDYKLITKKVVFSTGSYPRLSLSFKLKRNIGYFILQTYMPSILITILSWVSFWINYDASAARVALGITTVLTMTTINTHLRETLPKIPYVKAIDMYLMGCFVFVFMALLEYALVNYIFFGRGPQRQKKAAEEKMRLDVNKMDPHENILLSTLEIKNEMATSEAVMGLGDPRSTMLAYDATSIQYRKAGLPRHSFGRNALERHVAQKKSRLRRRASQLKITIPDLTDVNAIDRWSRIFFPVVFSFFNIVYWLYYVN
Sequence of Clu-GABA α2β2γ2 (E2RSQ0 40-467): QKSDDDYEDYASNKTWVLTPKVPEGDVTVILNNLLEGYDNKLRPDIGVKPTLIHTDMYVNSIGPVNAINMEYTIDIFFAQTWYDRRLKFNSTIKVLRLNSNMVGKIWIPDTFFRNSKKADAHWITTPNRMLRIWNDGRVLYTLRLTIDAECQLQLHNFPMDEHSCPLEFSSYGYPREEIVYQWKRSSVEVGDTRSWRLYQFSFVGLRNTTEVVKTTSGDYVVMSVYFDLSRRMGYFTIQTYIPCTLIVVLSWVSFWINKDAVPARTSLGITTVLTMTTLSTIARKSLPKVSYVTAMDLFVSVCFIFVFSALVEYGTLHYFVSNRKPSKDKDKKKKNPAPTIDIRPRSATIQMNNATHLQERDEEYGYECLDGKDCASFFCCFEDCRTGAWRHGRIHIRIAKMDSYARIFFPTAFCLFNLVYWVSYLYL
Excerpt: (§2) Complementary DNA (cDNA) encoding for the human GABAA proteins α1 (NM_001127645.2), α2 (NM_001377146.1), α3 (KJ620007.1), α4 (NM_000809.4), α5 (NM_000810.4), α6 (NM_000811.3), β2 (XM_054352312.1), β3 (M82919.1), γ2 (NM_000816.3) and δ (NM_000815.5) were ordered from Genewiz (www.genewiz.com; Leipzig, Germany); for each gene, GenBank accession numbers are provided in parentheses. When necessary, silent mutations were introduced to break NheI or XhoI internal restriction sites. The corresponding open reading frames (ORF) were cloned into the pT7-TS transcription vector (introducing X. laevis β-globin untranslated cDNA to the 5’ and 3’ ends of the gene), following a procedure described in detail in a previous publication. The same process was used to obtain cDNA encoding canine GABAA proteins α4 (XM_025435560.1), α6 (XM_022417729.1) and δ (XM_005620414.2). Gene α2 (XM_025435664.1), α3 (XM_549343.5), α5 (XM_545805.6) and β3 (XM_025437408.1) were obtained by PCR; GenBank reference accession numbers are provided in parentheses. RNA extraction, cDNA synthesis and PCR amplification were performed as described previously. Total RNA was extracted from a piece of dog brain (Beagle breed; Canis lupus familiaris) from which 1 µg of total RNA (DNase-treated) was reverse-transcribed to cDNA using a (dT)30 primer and SuperScript III Reverse Transcriptase (Invitrogen, Thermo Fisher Scientific, Waltham, MA, USA). Gene-specific primers (Additional file 1: Table S1) were designed using Primer 3 software (http://frodo.wi.mit.edu/). […] The cycling conditions were: 98 °C for 30 s; then 38 cycles of 98 °C for 10 s, 58 °C for 30 s and 72 °C for 90 s; followed by 72 °C for 5 min. The dog subunits α1 (XM_546261.5), β2 (XM_014113040.1) and γ2 (XM_546259.5) had been previously amplified and described in a study by Rufener et al..
as §1
(§3) Voltage-clamp measurements were performed as described by Rufener et al.. Oocytes were impaled with two electrodes filled with 3 M KCl, and their membrane potentials were maintained at − 80 mV throughout the experiment. […] Recordings were performed using an automated process equipped with standard two-electrode voltage-clamp configuration (HiClamp system; Multi Channel Systems MCS GmbH). Data were filtered at 10 Hz, captured at 100 Hz and analyzed using proprietary data acquisition and analysis software in MATLAB (Mathworks Inc., Natick, MA, USA). Additional analyses were performed using Excel (Microsoft, Redmond, WA, USA). […] Graphing the maximum inward currents against the log of agonist concentration produces typical concentration-activation and concentration-inhibition curves, which can be accurately described using individual Hill equations.

Clu-GABA α3β2γ2 = Clu-GABA α3β2γ2 (Canis lupus familiaris, UniProt A0A8I3PRS3+A0A8I3RPG5+E2RSQ0); test: as above
Sequence of Clu-GABA α3β2γ2 (A0A8I3PRS3 29-259): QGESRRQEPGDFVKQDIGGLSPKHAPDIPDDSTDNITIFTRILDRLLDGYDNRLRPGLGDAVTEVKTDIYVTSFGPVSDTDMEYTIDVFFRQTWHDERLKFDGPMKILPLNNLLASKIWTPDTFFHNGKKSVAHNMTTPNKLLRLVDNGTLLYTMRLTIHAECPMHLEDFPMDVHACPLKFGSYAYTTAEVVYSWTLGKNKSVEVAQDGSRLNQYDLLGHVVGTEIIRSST
Sequence of Clu-GABA α3β2γ2 (A0A8I3RPG5 25-473): as the sequence (A0A8I3RPG5 25-473) above
Sequence of Clu-GABA α3β2γ2 (E2RSQ0 40-467): as the sequence (E2RSQ0 40-467) above
Excerpt: as §2, §1, §3

Clu-GABA α5β2γ2 = Clu-GABA α5β2γ2 (Canis lupus familiaris, UniProt A0A8I3PC22+A0A8I3RPG5+E2RSQ0); test: as above
Sequence of Clu-GABA α5β2γ2 (A0A8I3PC22 32-462): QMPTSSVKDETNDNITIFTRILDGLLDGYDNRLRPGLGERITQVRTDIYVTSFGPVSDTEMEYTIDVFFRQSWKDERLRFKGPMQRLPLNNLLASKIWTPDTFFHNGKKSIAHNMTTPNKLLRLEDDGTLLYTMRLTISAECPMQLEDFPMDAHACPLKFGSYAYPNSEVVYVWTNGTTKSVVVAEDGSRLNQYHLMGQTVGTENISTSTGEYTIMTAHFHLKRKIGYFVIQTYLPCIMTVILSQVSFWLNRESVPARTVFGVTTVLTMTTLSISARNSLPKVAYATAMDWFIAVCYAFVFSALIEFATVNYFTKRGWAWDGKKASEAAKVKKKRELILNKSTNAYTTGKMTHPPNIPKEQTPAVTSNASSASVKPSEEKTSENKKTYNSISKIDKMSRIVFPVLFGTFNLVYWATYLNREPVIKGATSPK
Sequence of Clu-GABA α5β2γ2 (A0A8I3RPG5 25-473): as the sequence (A0A8I3RPG5 25-473) above
Sequence of Clu-GABA α5β2γ2 (E2RSQ0 40-467): as the sequence (E2RSQ0 40-467) above
Excerpt: as §2, §1, §3

Clu-GABA α2β3γ2 = Clu-GABA α2β3γ2 (Canis lupus familiaris, UniProt A0A8I3NUI4+A0A8I3S1N5+E2RSQ0); test: as above
Sequence of Clu-GABA α2β3γ2 (A0A8I3S1N5 29-451): as the sequence (A0A8I3S1N5 29-451) above
Sequence of Clu-GABA α2β3γ2 (A0A8I3NUI4 101-496): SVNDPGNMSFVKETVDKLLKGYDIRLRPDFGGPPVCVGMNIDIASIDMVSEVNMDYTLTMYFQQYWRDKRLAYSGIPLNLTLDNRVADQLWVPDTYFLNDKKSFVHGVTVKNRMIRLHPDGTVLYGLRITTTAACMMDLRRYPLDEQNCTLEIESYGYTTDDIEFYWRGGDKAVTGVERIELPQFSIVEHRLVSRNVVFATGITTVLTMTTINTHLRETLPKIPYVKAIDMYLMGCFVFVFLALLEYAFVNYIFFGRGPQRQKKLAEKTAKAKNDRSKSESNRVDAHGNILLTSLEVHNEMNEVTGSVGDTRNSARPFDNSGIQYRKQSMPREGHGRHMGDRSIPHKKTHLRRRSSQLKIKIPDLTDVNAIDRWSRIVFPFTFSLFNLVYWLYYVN
Sequence of Clu-GABA α2β3γ2 (E2RSQ0 40-467): as the sequence (E2RSQ0 40-467) above
Excerpt: as §2, §1, §3

Clu-GABA α1β2γ2 = Clu-GABA α1β2γ2 (Canis lupus familiaris, UniProt A0A2H4NNI8+A0A8I3RPG5+E2RSQ0); test: as above
Sequence of Clu-GABA α1β2γ2 (A0A2H4NNI8 28-456): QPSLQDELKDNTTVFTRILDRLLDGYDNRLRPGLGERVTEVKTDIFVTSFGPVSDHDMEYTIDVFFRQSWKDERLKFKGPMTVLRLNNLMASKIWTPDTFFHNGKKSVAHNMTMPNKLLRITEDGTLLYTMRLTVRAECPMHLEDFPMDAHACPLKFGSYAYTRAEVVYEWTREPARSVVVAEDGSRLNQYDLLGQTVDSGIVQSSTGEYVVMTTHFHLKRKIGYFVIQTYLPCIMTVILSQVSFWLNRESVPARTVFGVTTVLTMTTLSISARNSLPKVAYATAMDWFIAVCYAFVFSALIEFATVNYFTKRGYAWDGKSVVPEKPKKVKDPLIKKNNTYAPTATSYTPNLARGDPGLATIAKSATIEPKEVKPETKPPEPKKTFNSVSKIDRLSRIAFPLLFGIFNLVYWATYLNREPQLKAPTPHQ
Sequence of Clu-GABA α1β2γ2 (A0A8I3RPG5 25-473): as the sequence (A0A8I3RPG5 25-473) above
Sequence of Clu-GABA α1β2γ2 (E2RSQ0 40-467): as the sequence (E2RSQ0 40-467) above
Excerpt: as §2, §1, §3

Hsa-GABA α5β2γ2 = Hsa-GABA α5β2γ2 (Homo sapiens, UniProt P18507+P31644+P47870); test: as above; set-up: The corresponding open reading frames (ORF) were cloned into the pT7-TS transcription vector; expressed in transfected cells; host or cells: Xenopus laevis oocytes, cRNA injection; settings: concentration-activation curve
Sequence of Hsa-GABA α5β2γ2 (P31644 32-462): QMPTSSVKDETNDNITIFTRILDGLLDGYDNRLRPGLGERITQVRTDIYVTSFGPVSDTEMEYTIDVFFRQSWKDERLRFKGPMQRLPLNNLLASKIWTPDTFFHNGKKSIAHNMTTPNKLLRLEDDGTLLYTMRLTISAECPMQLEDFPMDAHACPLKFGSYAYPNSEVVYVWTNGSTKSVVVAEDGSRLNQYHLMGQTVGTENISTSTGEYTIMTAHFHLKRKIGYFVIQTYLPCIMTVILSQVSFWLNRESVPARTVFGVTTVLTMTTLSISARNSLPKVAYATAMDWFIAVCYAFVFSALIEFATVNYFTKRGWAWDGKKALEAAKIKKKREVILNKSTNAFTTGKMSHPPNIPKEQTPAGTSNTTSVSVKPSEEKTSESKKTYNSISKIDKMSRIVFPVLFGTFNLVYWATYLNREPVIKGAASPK
Sequence of Hsa-GABA α5β2γ2 (P47870 26-474 isoform P47870-1 limits assumed): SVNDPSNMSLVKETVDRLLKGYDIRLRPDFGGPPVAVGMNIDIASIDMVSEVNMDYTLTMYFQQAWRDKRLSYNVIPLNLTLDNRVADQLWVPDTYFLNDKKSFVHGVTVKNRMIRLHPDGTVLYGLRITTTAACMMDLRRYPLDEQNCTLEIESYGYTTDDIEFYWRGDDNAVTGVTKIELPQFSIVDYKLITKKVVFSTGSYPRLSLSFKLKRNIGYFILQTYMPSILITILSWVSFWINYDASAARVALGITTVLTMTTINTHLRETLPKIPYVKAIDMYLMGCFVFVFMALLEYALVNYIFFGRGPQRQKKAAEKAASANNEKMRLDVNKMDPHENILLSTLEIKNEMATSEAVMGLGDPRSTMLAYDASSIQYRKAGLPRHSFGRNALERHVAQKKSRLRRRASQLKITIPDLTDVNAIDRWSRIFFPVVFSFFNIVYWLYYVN
Sequence of Hsa-GABA α5β2γ2 (P18507 40-467 isoform P18507-1 limits assumed): as the sequence (E2RSQ0 40-467) above
Excerpt: as §2, §1, §3

[1] = agonist, 10 s applications, Xenopus oocytes, −80 mV

NCCCC(=O)O [GABA, gamma-aminobutyric acid]
Hill coefficients over the six Hsa-GABAR (Hsa-GABAR): higher than 1
EC50 (Clu-GABA α2β2γ2; [1]): 42 µM
nH (Hill coefficient) (Clu-GABA α2β2γ2; concentration-activation curve): 1.3
EC50 (Clu-GABA α3β2γ2; [1]): 40.4 µM
nH (Hill coefficient) (Clu-GABA α3β2γ2; concentration-activation curve): 0.8
EC50 (Clu-GABA α5β2γ2; [1]): 8.1 µM
nH (Hill coefficient) (Clu-GABA α5β2γ2; concentration-activation curve): 1.1
EC50 (Clu-GABA α2β3γ2; [1]): 8.6 µM
nH (Hill coefficient) (Clu-GABA α2β3γ2; concentration-activation curve): 1.6
EC50 (Clu-GABA α1β2γ2; [1]): 10 µM
nH (Hill coefficient) (Clu-GABA α1β2γ2; concentration-activation curve): 1.0
nH (Hill coefficient) (Hsa-GABA α5β2γ2): 1.1
